Reference: the supplement of paper PMC10331698
± gives the standard deviation of the averaged measurements.

Experiments:
Experiment in all cases: LOEC (log10 uM (lowest observed effect concentration))
[1] = compound: O=C(CC(=O)C(F)(F)C(F)(F)C(F)(F)F)c1cccs1 [(Perfluorobutyryl)-2-thenoylmethane]
Experimental: (§1)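 BioMAP Diversity Plus panel in human primary cell co-cultures, 4 concentrations in duplicate blinded samples. Responses are log10 fold change versus DMSO control, processed with tcpl v2.1.0. A hit is called when responses at any concentration exceed the cutoff (the larger of 3*bmad or log10(1.2)); the lowest observed effect concentration (modl_ga, log10 uM) is reported for hits.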

[2] = compound: OCCCC(F)(F)C(F)(F)C(F)(F)C(F)(F)C(F)(F)C(F)(F)C(F)(F)C(F)(F)F [3-(Perfluorooctyl)propanol]
Experimental: as §1

[3] = compound: OCCC(F)(F)C(F)(F)C(F)(F)C(F)(F)C(F)(F)C(F)(F)C(F)(F)C(F)(F)F [8:2 Fluorotelomer alcohol]
Experimental: as §1

[4] = compound: C=CC(=O)OCC(F)(F)C(F)(F)C(F)(F)C(F)(F)COC(=O)C=C [1H,1H,6H,6H-Perfluorohexane-1,6-diol diacrylate]
Experimental: as §1

[5] = compound: OC(C(F)(F)F)(C(F)(F)F)C(O)(C(F)(F)F)C(F)(F)F [Perfluoropinacol]
Experimental: as §1

[6] = compound: FC(F)(I)C(F)(F)C(F)(F)C(F)(F)C(F)(F)C(F)(F)I [1,6-Diiodoperfluorohexane]
Experimental: as §1

[7] = compound: OCC(F)(F)C(F)(F)C(F)(F)C(F)(F)C(F)(F)C(F)(F)C(F)(F)C(F)(F)CO [1H,1H,10H,10H-Perfluorodecane-1,10-diol]
Experimental: as §1

Test System	LOEC (log10 uM) [1]	LOEC (log10 uM) [2]	LOEC (log10 uM) [3]	LOEC (log10 uM) [4]	LOEC (log10 uM) [5]	LOEC (log10 uM) [6]	LOEC (log10 uM) [7]
CASM3C TissueFactor down	0.845	1.78	1.78	–	–	–	–
CASM3C TissueFactor up	–	–	–	1.78	–	–	–
CASM3C uPAR down	1.78	1.78	1.78	1.78	1.54 ± 0.34	1.78	–
IMphg IL1a down	–	1.78	–	–	–	–	1.78
IMphg IL8 down	–	–	–	–	–	1.78	1.78
IMphg MCSF down	–	1.78	1.78	1.54 ± 0.34	1.54 ± 0.34	1.78	1.78
IMphg SRB down	1.3	1.54 ± 0.34	1.78	–	1.3	1.3	1.78
KF3CT ICAM1 down	–	1.3	1.3	1.3	–	1.07 ± 0.32	1.78
KF3CT ICAM1 up	–	–	–	–	1.78	–	–
KF3CT IL1a down	–	0.845	1.3	1.54 ± 0.34	–	1.3	–
KF3CT IP10 down	–	1.3	1.3	1.3	1.78	1.3	–
KF3CT MCP1 down	–	1.3	1.3	1.07 ± 0.32	–	0.845	1.78
KF3CT MCP1 up	–	–	–	–	1.3	–	–
KF3CT MIG down	–	1.3	1.54 ± 0.34	1.3	1.78	1.07 ± 0.32	1.78
KF3CT PAI1 down	–	1.07 ± 0.32	1.3	1.3	1.78	0.845	1.78
KF3CT SRB down	–	1.3	1.3	1.78	1.78	1.07 ± 0.32	1.78
KF3CT TIMP2 down	–	1.3	1.3	1.07 ± 0.32	1.78	1.07 ± 0.32	1.78
KF3CT uPA down	–	1.3	1.3	1.3	–	1.3	–
LPS CD40 down	1.54 ± 0.34	1.3	1.3	0.845	1.3	1.78	–
LPS Eselectin down	–	0.845	1.78	1.3	1.78	1.54 ± 0.34	–
LPS IL8 down	–	0.845	1.54 ± 0.34	1.3	–	1.54 ± 0.34	–
LPS MCP1 down	1.3	1.07 ± 0.32	1.3	1.3	1.3	1.78	–
LPS MCSF down	–	1.3	1.04 ± 1	1.3	1.3	1.78	–
LPS PGE2 down	–	–	–	1.3	–	–	–
LPS SRB down	1.3	1.3	1.3	1.3	1.3	1.78	–
LPS Thrombomodulin down	–	–	–	–	1.07 ± 0.32	–	–
LPS TissueFactor down	–	1.31 ± 0.66	1.78	1.3	1.78	1.78	–
LPS TissueFactor up	1.3	–	–	–	–	–	–
